Data reported in patent US20030109501A1, “High throughput assay for N-sulfotransferase activity of glucosaminyl N-deacetylase/N-sulfotransferases” (priority 2001, published 2003).

Key:
Assay type in all cases: biochemical
[1] = target: T1, recombinant human wild-type NDST-2 (Homo sapiens, UniProt P52849); assay: Solid phase SPA assay for N-sulfotransferase activity (wild-type NDST-2); details: wild-type NDST-2 0.4 μg/well, fully desulfated heparin pre-coated WGA-SPA beads, 35[S]-PAPS 10 nCi/well, room temperature 5 h
T1 construct: the DNA fragment consisting of nucleotides 133-2651 of the human NDST-2 cDNA; made in house; host or cells: DG44 CHO cells (secreted, harvested from supernatant)
T1 sequence (P52849 40-883 limits assumed): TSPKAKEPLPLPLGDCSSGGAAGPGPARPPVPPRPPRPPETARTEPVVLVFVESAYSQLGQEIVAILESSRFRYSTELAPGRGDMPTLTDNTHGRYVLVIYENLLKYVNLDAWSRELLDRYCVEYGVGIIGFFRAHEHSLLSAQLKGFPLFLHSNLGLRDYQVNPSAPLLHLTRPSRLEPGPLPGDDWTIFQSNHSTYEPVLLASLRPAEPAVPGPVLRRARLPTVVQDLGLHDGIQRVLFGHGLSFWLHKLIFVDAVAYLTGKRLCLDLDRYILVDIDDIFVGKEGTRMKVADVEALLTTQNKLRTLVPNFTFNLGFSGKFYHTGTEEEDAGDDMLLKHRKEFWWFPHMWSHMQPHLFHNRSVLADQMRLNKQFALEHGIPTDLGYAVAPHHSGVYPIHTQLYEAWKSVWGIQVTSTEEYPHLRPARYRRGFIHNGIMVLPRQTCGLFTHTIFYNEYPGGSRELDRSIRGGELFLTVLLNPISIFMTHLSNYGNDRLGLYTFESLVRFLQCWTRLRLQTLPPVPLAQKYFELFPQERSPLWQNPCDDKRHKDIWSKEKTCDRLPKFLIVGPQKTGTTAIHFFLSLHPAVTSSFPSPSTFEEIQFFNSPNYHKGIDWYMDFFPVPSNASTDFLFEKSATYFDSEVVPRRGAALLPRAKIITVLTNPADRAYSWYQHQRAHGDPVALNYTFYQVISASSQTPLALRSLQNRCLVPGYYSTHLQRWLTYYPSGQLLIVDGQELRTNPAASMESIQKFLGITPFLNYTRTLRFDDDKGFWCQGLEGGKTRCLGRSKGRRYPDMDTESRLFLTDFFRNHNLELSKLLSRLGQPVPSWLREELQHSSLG
Protocol: (§1) The assays were conducted at room temperature in Reaction Buffer whose components were described in Example 3. The following components were added into the wells of a 96-well white plate (29444-020, Corning, N.Y.) at a final volume of 100 μl/well.
(§2) 1. 25 μl of the Reaction Buffer.
(§3) 2. 25 μl of desulfated heparin-coated beads (20 mg/ml, 500 μg/well).
(§4) 3. 25 μl of enzyme (ST2, 0.1 mg/ml, 2.5 μg/well or NDST-2, 17.6 μg/ml, 0.44 μg/well) and the plate was incubated on a shaker with slight agitation for 2 min.
(§5) 4. 25 μl of ^35[S]-PAPS (NEG-010, 0.832 mCi/ml, NEN Life Science, Boston, Mass.) (0.4 μCi/ml, 10 nCi/well).
The plate was sealed and incubated for 2-24 h. Radioactivity of the plate was then read in a Packard TopCount microplate scintillation counter (Packard Instrument, Downers Grove, Ill.). […]
(§6) A list of 335 compounds was obtained from a search of the Bristol-Myers Squibb inventoried database using the PHASE program and the bound conformation of PAPS taken from the NDST-1 crystal structure [Kakuta, Y. et al. (1999) J. Biol. Chem. 274, 10673-10676]. […] Percentage of inhibition was determined by equation; % Inhibition=(1-cpm with compound/cpm without compound)×100. […]
Compound A (FIGS. 6A and C) and Compound B (FIGS. 6B and D) in DMSO were added into 96-well white plates at the indicated concentrations. […] The plates were read in the TopCount microplate scintillation counter. […]

[2] = target: T2, recombinant human NDST-2 (wild-type) (Homo sapiens, UniProt P52849); assay: Manual sulfotransferase assay; details: final concentration of 6.25 μM; N-acetyl-de-O-sulfated heparin acceptor, 37° C. for 30 min; read-out: percent inhibition of N-sulfotransferase activity
T2 construct: the DNA fragment consisting of nucleotides 133-2651 of the human NDST-2 cDNA; made in house; host or cells: DG44 CHO cells (secreted, harvested from supernatant)
T2 sequence (P52849 40-883 limits assumed): T1 sequence (P52849 40-883 limits assumed)
Protocol: The manual sulfotransferase assays were conducted basically as described by Pettersson [Pettersson, I. et al. (1991) J. Biol. Chem. 266, 8044-8049; which is hereby incorporated herein by reference]. The following components were added into Eppendorf vials at a final volume of 200 μl/vial.
1. 119 μl of the Reaction Buffer whose components are described in EXAMPLE 3 herein
2. 1 μl of N-acetyl-de-O-sulfated heparin used as a sulfate acceptor (A6039, Sigma, 25 mg/ml, […]).
3. 20 μl of enzyme NDST-2 (17.6 μg/ml, […]).
4. 50 μl of test compounds (compound-treated reaction, 25 μM, 6.25 μM/vial) or 50 μl of 10% DMSO in reaction buffer (untreated reaction).
5. 10 μl of ^35[S]-PAPS used as a sulfate donor (2 μCi/ml, 100 nCi/vial).
All vials were incubated at 37° C. for 30 min. Reactions were stopped by the addition of 400 μl of 100% ethanol and 35 μl of 3 M sodium acetate into the vials. The samples were placed on dry ice for 5 min and then centrifuged at speed of 14,000 rpm for 5 min. The supernatants were discarded while the pellets were washed twice with 70% ethanol and then dissolved in 100 μl of water. […] Radioactivity was determined in a Beckman model LS 3800 scintillation counter (Beckman Coulter, Fullerton, Calif.). […]

[3] = target: T3, recombinant human sulfotransferase domain of NDST-2 (ST2) (Homo sapiens, UniProt P52849); assay: Solid phase SPA assay for N-sulfotransferase activity (ST2); details: ST2 2.5 μg/well, room temperature 5 h; for IC50: fully desulfated heparin pre-coated WGA-SPA beads, 35[S]-PAPS 10 nCi/well
T3 construct: subcloning the N-sulfotransferase domain of NDST-2 from the vector pFASTBac-GST-NDST-2; made in house; host or cells: E. coli BL21(DE3)pLysS
T3 sequence (P52849 598-883 limits assumed): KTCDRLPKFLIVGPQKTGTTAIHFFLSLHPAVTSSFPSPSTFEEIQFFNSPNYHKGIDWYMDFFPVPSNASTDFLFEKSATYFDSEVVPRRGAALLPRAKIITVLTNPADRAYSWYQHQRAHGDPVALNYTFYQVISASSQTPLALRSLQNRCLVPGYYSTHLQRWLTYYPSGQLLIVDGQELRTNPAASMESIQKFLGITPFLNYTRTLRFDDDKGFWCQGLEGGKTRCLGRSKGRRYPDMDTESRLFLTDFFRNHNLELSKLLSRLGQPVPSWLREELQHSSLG
Protocol: as §1, §2, §3, §4, §5
The plate was sealed and incubated for 2-24 h. Radioactivity of the plate was then read in a Packard TopCount microplate scintillation counter (Packard Instrument, Downers Grove, Ill.). The signal-to-noise ratio is the result of counts-per-minute (CPM) in the presence of enzyme divided by counts-per-minute in the absence of enzyme.
as §6, with “10673-10676]. The PHASE program is an internally developed program for database searches based on ligand molecular shape and pharmacophroic elements.” for “10673-10676].”
The plate was incubated at room temperature and 5 h. The plate was read in the TopCount scintillation counter. […] The Km of PAPS is determined as a PAPS concentration by using the Michaelis-Menten equation: y=5×10^−5x+5×10^−5.
Compound A (FIGS. 6A and C) and Compound B (FIGS. 6B and D) in DMSO were added into 96-well white plates at the indicated concentrations. […] The plates were read in the TopCount microplate scintillation counter. Percentage of inhibition was determined by the following equation: % Inhibition=(1-cpm with compound/cpm without compound)×100. IC50 was determined by the Microsoft XLfit program.

IC50 [1] [nM] | inhibition at 6.25 µM [2] [%] | IC50 [3] [nM] | Km ([3]; double-reciprocal plot, read-out: Km of PAPS) [µM] | SMILES
~1720 | 94.7 | ~399 | – | O=P(O)(O)CC(Cc1ccc(Cl)cc1)CP(=O)(O)O [Compound A]
~2440 | 64.8 | ~520 | – | CC(C)c1ccc(O)c(CN(CP(=O)(O)O)CP(=O)(O)O)c1 [Compound B]
– | – | – | ~1 | Nc1ncnc2c1ncn2[C@@H]1O[C@H](COP(=O)(O)OS(=O)(=O)O)[C@@H](OP(=O)(O)O)[C@H]1O [PAPS, adenosine 3′-phosphate 5′-phosphosulfate, reference compound]
